Calls of active or inactive are those of the source.
Columns and labels:
fMet-Leu-Phe receptor = fMet-Leu-Phe receptor (Homo sapiens, UniProt P21462); assay: formyl peptide receptor binders – dose response (AID 519); type: functional
[1] = anti-trypanosomal activity in BESM host cells – imaging, CA-I/72 strain, bovine embryo skeletal muscle, dry powder, dose response (AID 651885); type: functional, cell-based
[2] = molecular target: Luciferin 4-monooxygenase (Photinus pyralis, UniProt P08659); assay: inhibition of purified Photinus pyralis luciferase – biochemical, luminescence, dose response (AID 1891)
[3] = Luminescence Cell-Based Dose Confirmation HTS to Identify Inhibitors of Platelet Dense Granule Release. [Related pubchem assays: 1663 (Primary HTS), 1678 (Summary of Project)]; type: functional
Protein skinhead-1 = molecular target: T1, Protein skinhead-1 (Caenorhabditis elegans, UniProt P34707); type: functional
T1 sequence (P34707 whole entry): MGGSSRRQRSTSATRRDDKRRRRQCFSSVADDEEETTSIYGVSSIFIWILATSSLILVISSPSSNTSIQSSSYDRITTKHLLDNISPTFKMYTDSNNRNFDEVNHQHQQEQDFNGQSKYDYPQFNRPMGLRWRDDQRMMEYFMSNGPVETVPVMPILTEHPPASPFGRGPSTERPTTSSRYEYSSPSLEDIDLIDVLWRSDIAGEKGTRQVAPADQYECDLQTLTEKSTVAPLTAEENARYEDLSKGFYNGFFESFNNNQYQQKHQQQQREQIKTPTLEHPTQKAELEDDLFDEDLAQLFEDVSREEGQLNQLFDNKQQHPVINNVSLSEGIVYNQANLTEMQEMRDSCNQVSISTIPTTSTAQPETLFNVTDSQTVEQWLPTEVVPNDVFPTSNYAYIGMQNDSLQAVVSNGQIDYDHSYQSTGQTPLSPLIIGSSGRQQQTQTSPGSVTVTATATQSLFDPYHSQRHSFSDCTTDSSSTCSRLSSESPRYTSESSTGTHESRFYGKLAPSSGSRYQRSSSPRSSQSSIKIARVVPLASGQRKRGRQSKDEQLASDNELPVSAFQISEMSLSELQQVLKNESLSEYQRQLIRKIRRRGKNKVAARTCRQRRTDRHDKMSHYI

[4] = toxicity toward HepG2 liver cells – cell-based, plate reader, cherry-pick, antagonist series, cytotoxicity control, dose response (AID 743416); type: functional
[5] = blockers of bursicon-stimulated LGR2 cAMP reporter – cell-based, HEK293, CRE-luciferase reporter, cherry pick, set 2, dose response (AID 743343); type: functional;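 note: transfected cells were stimulated with diluted bursicon conditioned medium after compound addition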
[6] = blockade of melanocortin 4 receptor signaling – cell-based, plate reader, cherry pick, counter-screen for LGR2 antagonist project, dose response (AID 743444); type: functional;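 note: transfected HEK 293 cells stimulated with alpha-MSH peptide; potency of inhibitors of the alpha-MSH evoked signal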
[7] = molecular target: T2, Oxysterols receptor LXR-beta (Homo sapiens, UniProt P55055); type: functional, cell-based;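 note: Cell-based luminescence dose-response assay of agonist activity at LXR, run as a confirmatory counterscreen to a daf-12 agonist screen; HEK293 cells with Gal4-LXR fusion and GAL4-driven luciferase reporter; agonist potency from rising luciferase signal of a Gal4-LXR reporter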
T2 sequence (P55055 whole entry): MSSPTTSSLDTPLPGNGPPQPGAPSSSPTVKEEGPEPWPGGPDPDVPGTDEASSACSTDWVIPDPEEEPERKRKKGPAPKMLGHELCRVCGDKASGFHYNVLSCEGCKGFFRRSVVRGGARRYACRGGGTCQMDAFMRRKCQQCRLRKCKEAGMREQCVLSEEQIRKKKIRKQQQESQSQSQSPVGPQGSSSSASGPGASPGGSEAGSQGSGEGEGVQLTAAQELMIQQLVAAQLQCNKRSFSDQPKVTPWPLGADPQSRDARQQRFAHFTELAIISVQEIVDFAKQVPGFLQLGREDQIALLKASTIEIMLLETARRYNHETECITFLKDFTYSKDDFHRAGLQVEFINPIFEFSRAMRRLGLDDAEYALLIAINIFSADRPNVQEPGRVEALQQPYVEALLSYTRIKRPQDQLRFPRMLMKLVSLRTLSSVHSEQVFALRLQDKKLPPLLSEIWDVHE

cells [8] = assay: cells
Genome polyprotein = Genome polyprotein (dengue virus type 2, UniProt P29990); assay: flavivirus cap methylation enzyme inhibition – biochemical, confirmation dose response, primary screen (AID 588689); type: functional
Protein Tat = Protein Tat (Human immunodeficiency virus type 1 group M subtype B (isolate HXB2)(HIV-1), UniProt P04608); type: functional;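 note: tat binding to TAR RNA read out by fluorescence polarization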
[9] = molecular target: T3, DNA repair and recombination protein RAD54-like (Homo sapiens, UniProt Q92698); assay: RAD54 Holliday junction migration blockers – biochemical, fluorescence, cherry-picked samples, dose series, confirmation (AID 651657); type: functional
T3 sequence (Q92698 whole entry): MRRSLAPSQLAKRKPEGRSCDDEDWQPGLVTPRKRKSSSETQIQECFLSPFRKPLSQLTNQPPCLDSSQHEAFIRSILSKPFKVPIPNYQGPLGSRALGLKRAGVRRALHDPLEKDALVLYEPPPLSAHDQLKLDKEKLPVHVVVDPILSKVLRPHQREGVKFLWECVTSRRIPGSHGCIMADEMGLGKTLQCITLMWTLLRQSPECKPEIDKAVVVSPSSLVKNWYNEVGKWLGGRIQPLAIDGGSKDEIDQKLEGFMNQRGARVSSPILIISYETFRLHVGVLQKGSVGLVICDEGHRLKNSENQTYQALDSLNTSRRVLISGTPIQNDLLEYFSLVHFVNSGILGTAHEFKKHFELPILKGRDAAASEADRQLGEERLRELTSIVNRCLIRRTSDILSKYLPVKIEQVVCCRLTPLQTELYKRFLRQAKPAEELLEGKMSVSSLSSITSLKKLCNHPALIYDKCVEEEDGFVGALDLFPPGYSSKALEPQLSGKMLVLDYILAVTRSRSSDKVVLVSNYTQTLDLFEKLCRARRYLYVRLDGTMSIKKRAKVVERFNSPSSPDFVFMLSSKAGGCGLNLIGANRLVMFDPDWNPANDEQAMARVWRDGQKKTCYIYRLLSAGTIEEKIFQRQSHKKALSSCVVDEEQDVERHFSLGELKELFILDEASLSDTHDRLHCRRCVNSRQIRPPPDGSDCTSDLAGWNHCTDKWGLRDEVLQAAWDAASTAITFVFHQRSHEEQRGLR

[10] = molecular target: DNA repair protein RAD52 homolog (Homo sapiens, UniProt P43351); type: functional, biochemical
[11] = general mammalian cell viability loss – activator set, cherry-pick, cytotoxicity control for miR-122 modulator project, dose response (AID 720690); type: functional, cell-based;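 note: HEK293T human cells scored for general mammalian cytotoxicity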
[12] = P. falciparum Dd2 growth inhibitors, dose response, SYBR Green, cherry-picked samples (AID 1159567); type: functional, cell-based
[13] = toxicity to human hepatoma HepG2 cells – cell-based, cherry-picked samples, cytotoxicity control, dose response (AID 1159577); type: functional
[14] = molecular target: Heat shock protein HSP 90-alpha (Homo sapiens, UniProt P07900); assay: Luminescence-based dose response biochemical high throughput screening assay for inhibitors of the Heat Shock Protein 90 (HSP90). [Related pubchem assays: 1831 (Summary AID.), 1846 (Confirmation screen.), 1789 (Primary screen.)]
Major prion protein = Major prion protein (Homo sapiens, UniProt P04156); type: functional, cell-based
cells [15] = assay: cells; remark: listed apart in the source
[16] = molecular target: 1-phosphatidylinositol 4,5-bisphosphate phosphodiesterase gamma-1 (Homo sapiens, UniProt P19174); assay: Counterscreen for inhibitors of phospholipase C isozymes (PLC-B3): Fluorescence-based biochemical high throughput dose response assay to identify inhibitors of phospholipase C isozymes (PLC-gamma1).
[17] = molecular target: 1-phosphatidylinositol 4,5-bisphosphate phosphodiesterase beta-3 (Homo sapiens, UniProt Q01970); assay: Fluorescence-based biochemical high throughput dose response assay to identify inhibitors of phospholipase C isozymes (PLC-B3).

In the case of `Oc1cc(-c2ccccc2)nc(N2CCN(Cc3ccccc3)CC2)n1`, the Ki (fMet-Leu-Phe receptor) is reported as > 66.7 µM (inactive).
For `CC(C)N1C[C@H](C)[C@@H](CN(C)C(=O)OC(C)(C)C)Oc2c(NC(=O)c3cccnc3)cccc2C1=O`, the IC50 [1] was > 20 µM (inactive).
For `Cc1ccc(-c2noc(-c3cccs3)n2)cc1`, the EC50 [2] was 3.98 µM (active), the EC50 [3] was > 112 µM (not active) and the IC50 (Protein skinhead-1) was 18.8 µM (active). For the same compound, the AC50 [4] was > 52 µM (inactive), the AC50 [5] was 14.4 µM (active) and the AC50 [6] was 22.3 µM (active). The EC50 [7] was > 67.5 µM (inactive) and the EC50 (cells [8]) was > 67.5 µM (inactive).
With `O=C(O)c1ccc(-n2nc(C(F)(F)F)c3c2-c2ccoc2CC3)cc1` the IC50 (Genome polyprotein) was 89 µM (active) and the IC50 (Protein Tat) was > 100 µM (active).
For `CN(C)CCNC(=O)c1cccc(-c2cnc3c(NC=O)cc(-c4ccccc4F)cn23)c1`, the AC50 [9] was 21.7 µM (active) and the AC50 [10] was 3.69 µM (active).
For `COc1ccc(C#Cc2ccc3c(c2)O[C@H](CN(C)C(=O)CN2CCOCC2)[C@@H](C)CN([C@@H](C)CO)S3(=O)=O)cc1`, the AC50 [11] was 43.2 µM (active).
For `CO[C@H]1CN(C)C(=O)c2ccc(NC(=O)c3ccc(Oc4ccccc4)cc3)cc2OC[C@H](C)NC[C@H]1C`, the AC50 [12] was 6.48 µM (active) and the AC50 [13] was 11.7 µM (active).
With `Cc1c(-c2nc(-c3ccc(C(F)(F)F)cc3)no2)n(C)oc1=O` the IC50 [14] was 1.6 µM (active).
With `O=C(COc1ccc2ccccc2c1Br)NC(=S)Nc1cccc(CO)c1` the IC50 (Major prion protein) was 9.99 µM (active) and the IC50 (cells [15]) was 98.9 µM (inactive).
For `O=S(=O)(CS(=O)(=O)c1ccc(Br)cc1)c1ccc(Br)cc1`, the IC50 [16] was 30.4 µM (inactive) and the IC50 [17] was > 123 µM (inactive).
For `COc1cc(CN2C[C@@H]3N[C@H](C2)[C@@H]3c2ccc(-c3ccc(C#N)cc3)cc2)cc(OC)c1`, the AC50 [12] was 3.05 µM (active) and the AC50 [13] was 10.5 µM (active).
